Assay results as given in patent publication US9884842B2, “Combretastatin analogs” (The Board of Trustees of the University of Arkansas, priority 2013, dated 2018).

These compounds were tested on NCI-H522 (assay: NCI growth inhibition and cytotoxicity screen, Lung Cancer panel). Conditions: Homo sapiens, NCI-H522; Table 1; cell line NCIH522 (Lung Cancer).
Assay type: cell-based

Row | SMILES | GI50 [nM]
1 | COc1cc(/C=C/c2cc3ccccc3o2)cc(OC)c1OC [Formula (I)(c)] | 0.43

Same assay, conditions: Homo sapiens, NCI-H522; Table 1; cell line NCIH522 (Lung Cancer); read-out: LC50 (the source's name)

Row | SMILES | CC50 [nM]
2 | COc1cc(/C=C/c2cc3ccccc3o2)cc(OC)c1OC [Formula (I)(c)] | > 100000

These compounds were tested on SF-295 (assay: NCI growth inhibition and cytotoxicity screen, CNS Cancer panel). Conditions: Homo sapiens, SF-295; Table 1; cell line SF-2395 (CNS Cancer).
Assay type: cell-based

Row | SMILES | GI50 [nM]
3 | COc1cc(/C=C/c2cc3ccccc3o2)cc(OC)c1OC [Formula (I)(c)] | 0.35

Same assay, conditions: Homo sapiens, SF-295; Table 1; cell line SF-2395 (CNS Cancer); read-out: LC50 (the source's name)

Row | SMILES | CC50 [nM]
4 | COc1cc(/C=C/c2cc3ccccc3o2)cc(OC)c1OC [Formula (I)(c)] | > 100000

These compounds were tested on MOLT-4 (assay: NCI growth inhibition and cytotoxicity screen, Leukemia panel). Conditions: Homo sapiens, MOLT-4.

Row | SMILES | GI50 [nM]
5 | COc1cc(/C=C/c2cc3ccccc3o2)cc(OC)c1OC [Formula (I)(c)] | 0.85

Same assay, conditions: Homo sapiens, MOLT-4, read-out: LC50

Row | SMILES | CC50 [nM]
6 | COc1cc(/C=C/c2cc3ccccc3o2)cc(OC)c1OC [Formula (I)(c)] | > 100000

These compounds were tested on RPMI-8226 in the same assay as above. Conditions: Homo sapiens, RPMI-8226.

Row | SMILES | GI50 [nM]
7 | COc1cc(/C=C/c2cc3ccccc3o2)cc(OC)c1OC [Formula (I)(c)] | 0.7

Same assay, conditions: Homo sapiens, RPMI-8226, read-out: LC50

Row | SMILES | CC50 [nM]
8 | COc1cc(/C=C/c2cc3ccccc3o2)cc(OC)c1OC [Formula (I)(c)] | > 100000

The compounds below were run on SR in the same assay as above. Conditions: Homo sapiens.

Row | SMILES | GI50 [nM]
9 | COc1cc(/C=C/c2cc3ccccc3o2)cc(OC)c1OC [Formula (I)(c)] | 0.09

Same assay, conditions: Homo sapiens, read-out: LC50

Row | SMILES | CC50 [nM]
10 | COc1cc(/C=C/c2cc3ccccc3o2)cc(OC)c1OC [Formula (I)(c)] | > 100000

The compounds below were run on LOX-IMVI (assay: NCI growth inhibition and cytotoxicity screen, Melanoma panel). Conditions: Homo sapiens.

Row | SMILES | GI50 [nM]
11 | COc1cc(/C=C/c2cc3ccccc3o2)cc(OC)c1OC [Formula (I)(c)] | 0.89

Same assay, conditions: Homo sapiens, read-out: LC50

Row | SMILES | CC50 [nM]
12 | COc1cc(/C=C/c2cc3ccccc3o2)cc(OC)c1OC [Formula (I)(c)] | 60400

The compounds below were run on M14 in the same assay as above. Conditions: Homo sapiens, M14.

Row | SMILES | GI50 [nM]
13 | COc1cc(/C=C/c2cc3ccccc3o2)cc(OC)c1OC [Formula (I)(c)] | 0.47

Same assay, conditions: Homo sapiens, M14, read-out: LC50

Row | SMILES | CC50 [nM]
14 | COc1cc(/C=C/c2cc3ccccc3o2)cc(OC)c1OC [Formula (I)(c)] | 88400

What follows are compounds tested on UACC-257 in the same assay as above. Conditions: Homo sapiens, UACC-257.

Row | SMILES | GI50 [nM]
15 | COc1cc(/C=C/c2cc3ccccc3o2)cc(OC)c1OC [Formula (I)(c)] | 16.4

Same assay, conditions: Homo sapiens, UACC-257, read-out: LC50

Row | SMILES | CC50 [nM]
16 | COc1cc(/C=C/c2cc3ccccc3o2)cc(OC)c1OC [Formula (I)(c)] | > 100000

Each compound was assayed on UACC-62 in the same assay as above. Conditions: Homo sapiens, UACC-62.

Row | SMILES | GI50 [nM]
17 | COc1cc(/C=C/c2cc3ccccc3o2)cc(OC)c1OC [Formula (I)(c)] | 0.5

Same assay, conditions: Homo sapiens, UACC-62, read-out: LC50

Row | SMILES | CC50 [nM]
18 | COc1cc(/C=C/c2cc3ccccc3o2)cc(OC)c1OC [Formula (I)(c)] | > 100000

Each compound was assayed on SNB-19 (assay: NCI growth inhibition and cytotoxicity screen, CNS Cancer panel). Conditions: Homo sapiens, SNB-19.

Row | SMILES | GI50 [nM]
19 | COc1cc(/C=C/c2cc3ccccc3o2)cc(OC)c1OC [Formula (I)(c)] | 0.58

Same assay, conditions: Homo sapiens, SNB-19, read-out: LC50

Row | SMILES | CC50 [nM]
20 | COc1cc(/C=C/c2cc3ccccc3o2)cc(OC)c1OC [Formula (I)(c)] | > 100000

What follows are compounds tested on SNB-75 in the same assay as above. Conditions: Homo sapiens, SNB-75.

Row | SMILES | GI50 [nM]
21 | COc1cc(/C=C/c2cc3ccccc3o2)cc(OC)c1OC [Formula (I)(c)] | 0.47

Same assay, conditions: Homo sapiens, SNB-75, read-out: LC50

Row | SMILES | CC50 [nM]
22 | COc1cc(/C=C/c2cc3ccccc3o2)cc(OC)c1OC [Formula (I)(c)] | > 100000

These compounds were tested on U251 in the same assay as above. Conditions: Homo sapiens, U-251.

Row | SMILES | GI50 [nM]
23 | COc1cc(/C=C/c2cc3ccccc3o2)cc(OC)c1OC [Formula (I)(c)] | 0.66

Same assay, conditions: Homo sapiens, U-251, read-out: LC50

Row | SMILES | CC50 [nM]
24 | COc1cc(/C=C/c2cc3ccccc3o2)cc(OC)c1OC [Formula (I)(c)] | 81200

Each compound was assayed on NCI-H226 (assay: NCI growth inhibition and cytotoxicity screen, Lung Cancer panel). Conditions: Homo sapiens, NCI-H226.

Row | SMILES | GI50 [nM]
25 | COc1cc(/C=C/c2cc3ccccc3o2)cc(OC)c1OC [Formula (I)(c)] | 1.1

Same assay, conditions: Homo sapiens, NCI-H226, read-out: LC50

Row | SMILES | CC50 [nM]
26 | COc1cc(/C=C/c2cc3ccccc3o2)cc(OC)c1OC [Formula (I)(c)] | > 100000

The compounds below were run on NCI-H23 in the same assay as above. Conditions: Homo sapiens, NCI-H23.

Row | SMILES | GI50 [nM]
27 | COc1cc(/C=C/c2cc3ccccc3o2)cc(OC)c1OC [Formula (I)(c)] | 3.09
